We go through one compound from patent US20250268824A1, “METHODS FOR MAKING REDUCED PARTICLE SIZE COMPOUNDS” (TaP Pharmaceuticals AG, priority 2024, published 2025).

This series is described as follows: Miscibility of unprocessed prednisolone acetate with water. Format: physicochemical. The following applies: floats on the surface of water. On the procedure:
API Particle size reduction. The API, prednisolone acetate, of the present invention is destined for inclusion in ophthalmic formulation and characterized by a target PSD of: D10≤0.15 μM, D50≤0.75 μM, D90≤2.5 μM. […] Addition of surfactant (e.g. polysorbate) to aqueous solution was required to form slurries of prednisolone acetate suitable for use as vehicles in particle size reduction experiments that employed bead milling and high-pressure homogenization.
API Particle size reduction. The API, prednisolone acetate, of the present invention is destined for inclusion in ophthalmic formulation and in some embodiments characterized by a target PSD of: D10≤1.0 μM, D50≤2.2 μM, D90≤4.5 μM. […] Addition of surfactant (e.g. polysorbate) to aqueous solution was required to form slurries of prednisolone acetate suitable for use as vehicles in particle size reduction experiments that high-pressure homogenization.

In the case of `CC(=O)OCC(=O)[C@@]1(O)CC[C@H]2[C@@H]3CCC4=CC(=O)C=C[C@]4(C)[C@H]3[C@@H](O)C[C@@]21C` [prednisolone acetate], the miscibility with water entry is “immiscible with water”.
